Patent US10322108B2, “N-benzoate group substituted benzopyrroline-2-one derivative and use thereof” (BEIJING HANMI PHARMACEUTICAL CO., LTD., priority 2015, dated 2019)

Tests used:
Th17 cells = experiment: Differentiation inhibition experiments on Th17 cells (IL-17A content in supernatant by ELISA); type: cell-based, C57 mouse; details: 1 μM compound; differentiation of mouse naïve CD4+ T cells to Th17, IL-17A ELISA; read-out: Inhibition Rate (1 μM)
Method: 5 μg/mL mouse CD3 antibody (purchased from BD) was coated on a 96-well plate (37° C., 2-6 hours) and stored for future use. C57 mouse lymph gland naïve CD4 positive T cells were separated using CD4+ T cell isolation kit II (purchased from MACS), and were inoculated to the coated 96-well plate at 5×10^5 cells/well/100 μL. The test sample was gradient diluted with RMPI-1640 culture medium (Gibco, 22440), and was made to be 4 times of the final concentration (starting from 1 μM, 10 times dilution, setting 6 drug concentrations). The diluted test sample was added at 50 μL/well to the test well inoculated with cells. To each of the positive and negative control wells was added 50 μL RMPI-1640 culture medium. To each of the test wells and the positive control wells was further added 50 μL mixed solution of activators (20 ug/mL mouse CD28 antibody (purchased from BD); 40 ug/mL mouse IL-4 antibody (purchased from BD); 40 ug/mL mouse IFNγ antibody (purchased from BD); 4 ng/mL mouse TGF-β1 (purchased from R&D); 200 ng/mL mouse IL-6 (purchased from R&D); 20 ng/mL mouse IL-23 (purchased from R&D)) having a 4-fold final concentration; to the negative control well was added 50 μL RMPI-1640 culture medium. The loaded 96-well plate was placed in an incubator at 37° C., 5% CO2 and was cultured for 66 hours, followed by adding to each well 50 uL mixed solution of PMA (purchased from Sigma, working concentration: 50 ng/mL) and Ionomycin (purchased from Sigma, working concentration: 1 ug/mL), and culturing at 37° C. for another 6 hours. After the culture was completed, a cell culture supernatant was taken, and the IL-17A content in the supernatant was determined using mouse IL-17A ELISA kit (purchased from Dakewe), and the inhibition rate and the IC50 value were calculated. The specific operation followed the kit specification (see below):
(1) Determining the number of required strips according to the number of the test wells (blank and standard); taking out the Washing buffer (50×) and the ready-to-use solution from the kit 20 min in advance to balance to room temperature.
(2) Loading samples: adding diluted Cytokine standard to the standard well at 100 μL/well, adding the sample to the sample well at 100 μL/well, setting a blank well, in which Dilution buffer R (1×) was used instead of the sample and the standard.
(3) Adding testing antibody: adding diluted Biotinylated antibody at 50 μL/well; covering with a sealing film after mixing uniformly, and incubating at 37° C. for 90 min.
(4) Washing the plate: deducting the liquid in the well, adding 1× washing buffer at 300 μL/well; maintain for 1 min, then discarding the liquid in the well; repeating 4 times, each time deducting to dryness on filter pater.
(5) Adding enzyme: adding diluted Streptavidin-HRP at 100 μL/well; covering with a sealing film, and incubating at 37° C. for 30 min.
(6) Washing the plate: repeating […].
(7) Color development: adding TMB at 100 μL/well, incubating at 37° C. in a dark place for 5-30 min, and determining to terminate the reaction according to the depth of the color in the well (dark blue). Normally, a good effect can be achieved by color development for 10-20 min.
(8) Terminating the reaction: rapidly adding a stop solution at 100 μL/well to terminate the reaction.
Reading the plate: 10 min after termination, reading the value using a measurement wavelength of 450 nm.

RORγ-LBD = RORγ-LBD (Homo sapiens (Human), UniProt P51449); experiment: LanthaScreen TR-FRET screening of RORγ-LBD / co-activator (Fluorescein-D22) interaction; details: read-out: IC50 Values; TR-FRET, 2 nM RORγ-LBD, 150 nM Fluorescein-D22 co-activator
Sequence of RORγ-LBD (P51449 269-508): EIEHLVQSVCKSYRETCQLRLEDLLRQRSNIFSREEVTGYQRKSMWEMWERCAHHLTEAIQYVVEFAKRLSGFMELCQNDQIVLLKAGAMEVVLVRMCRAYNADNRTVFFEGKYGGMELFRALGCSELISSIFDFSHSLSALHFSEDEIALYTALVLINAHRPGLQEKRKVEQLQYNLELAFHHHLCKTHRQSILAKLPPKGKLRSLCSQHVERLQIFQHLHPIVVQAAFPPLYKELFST

Row | SMILES | inhibition at 1 µM (Th17 cells) [%] | IC50 (RORγ-LBD) [nM]
1 | COc1cccc(Cl)c1/C=C1\C(=O)N(c2ccc(C(=O)O)c(O)c2)c2cccc(C)c21 [Example 3, (trans)-4-(3-(2-chloro-6-methoxy-benzylidene)-4-methylindolin-2-on-1-yl)-2-hydroxybenzoic acid] | > 50 | < 100
2 | O=C(O)c1ccc(N2C(=O)/C(=C\c3c(Cl)cccc3Cl)c3c(F)cccc32)cc1 [Example 15A, (trans)-4-(3-(2,6-dichloro-benzylidene)-4-fluoro-indolin-2-on-1-yl)-benzoic acid] | > 50 | < 100
3 | O=C(O)c1ccc(N2C(=O)/C(=C/c3c(Cl)cccc3C3CC3)c3c(F)cccc32)cc1 [Example 16B, (cis)-4-(3-(2-chloro-6-cyclopropyl-benzylidene)-4-fluoro-indolin-2-on-1-yl)-benzoic acid] | > 50 | < 100
4 | Cc1cccc2c1/C(=C/c1c(Cl)cccc1C1CC1)C(=O)N2c1ccc(C(=O)O)c(O)c1 [Example 1, (trans)-4-(3-(2-chloro-6-cyclopropyl-benzylidene)-4-methylindolin-2-on-1-yl)-2-hydroxy benzoic acid] | > 50 | < 100
5 | Cc1cccc(Cl)c1/C=C1\C(=O)N(c2ccc(C(=O)O)c(O)c2)c2cccc(C)c21 [Example 10, (trans)-4-(3-(2-chloro-6-methyl-benzylidene)-4-methylindolin-2-on-1-yl)-2-hydroxybenzoic acid] | > 50 | < 100
6 | Cc1cccc2c1/C(=C/c1c(Cl)cccc1Cl)C(=O)N2c1ccc(C(=O)O)c(O)c1 [Example 4, (trans)-4-(3-(2,6-dichloro-benzylidene)-4-methylindolin-2-on-1-yl)-2-hydroxybenzoic acid] | > 50 | < 100
7 | O=C(O)c1ccc(N2C(=O)/C(=C/c3c(Cl)cccc3Cl)c3c(F)cccc32)cc1 [Example 15B, (cis)-4-(3-(2,6-dichloro-benzylidene)-4-fluoro-indolin-2-on-1-yl)-benzoic acid] | < 50 | < 100
8 | Cc1cccc2c1/C(=C/c1c(Cl)cccc1C1CC1)C(=O)N2c1ccc(C(=O)O)cc1 [Example 2A, (trans)-4-(3-(2-chloro-6-cyclopropyl-benzylidene)-4-methylindolin-2-on-1-yl)-benzoic acid] | > 50 | < 100
